The text below walks through data of patent US20230416199A1, “INHIBITORS OF AMINO ACID TRANSPORT” (ICAHN SCHOOL OF MEDICINE AT MOUNT SINAI, priority 2020, published 2023).

Holding throughout (assay type): cell-based
One assay concerns the target T1, rASCT2 (Rattus norvegicus, UniProt D3ZJ25).
T1 construct: expressed in transfected cells; host or cells: HEK293 (ATCC CRL-11268), transient transfection
T1 sequence (D3ZJ25 1-555): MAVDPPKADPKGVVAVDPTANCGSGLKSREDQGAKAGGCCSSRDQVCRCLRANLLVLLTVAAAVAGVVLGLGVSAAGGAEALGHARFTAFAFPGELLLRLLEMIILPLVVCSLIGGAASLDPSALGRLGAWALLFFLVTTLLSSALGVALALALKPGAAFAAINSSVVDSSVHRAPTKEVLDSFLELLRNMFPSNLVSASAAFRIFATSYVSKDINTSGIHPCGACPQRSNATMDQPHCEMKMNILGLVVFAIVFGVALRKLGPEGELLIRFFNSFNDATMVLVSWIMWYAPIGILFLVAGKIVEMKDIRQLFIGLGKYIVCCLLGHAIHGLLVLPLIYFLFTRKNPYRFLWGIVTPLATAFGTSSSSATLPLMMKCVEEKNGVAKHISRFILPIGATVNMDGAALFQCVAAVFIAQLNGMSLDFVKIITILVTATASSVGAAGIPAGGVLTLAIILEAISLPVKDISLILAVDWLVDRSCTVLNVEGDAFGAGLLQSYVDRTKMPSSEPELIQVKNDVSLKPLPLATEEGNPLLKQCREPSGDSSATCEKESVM
As to the kind of experiment: Electrophysiology (whole-cell current recording) of transfected HEK293 cells, rASCT2. Conditions: apparent Ki in the absence of substrate, HEK293, mean ± SD; read-out: Ki rASCT2. The method in brief: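 Apparent Ki values were derived by fitting dose-response currents to a Michaelis-Menten-like equation in the absence of substrate. Currents were recorded from transiently transfected HEK293 cells in whole-cell configuration, with 10 mM internal alanine for ASCT2 or 10 mM internal glutamate for EAAT1, NaSCN-based pipette solution and pH 7.40.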

The target in a further assay is T2, EAAT1 (Homo sapiens, UniProt P43003).
T2 construct: expressed in transfected cells; host or cells: HEK293 (ATCC CRL-11268), transient transfection
T2 sequence (P43003 whole entry, species assumed): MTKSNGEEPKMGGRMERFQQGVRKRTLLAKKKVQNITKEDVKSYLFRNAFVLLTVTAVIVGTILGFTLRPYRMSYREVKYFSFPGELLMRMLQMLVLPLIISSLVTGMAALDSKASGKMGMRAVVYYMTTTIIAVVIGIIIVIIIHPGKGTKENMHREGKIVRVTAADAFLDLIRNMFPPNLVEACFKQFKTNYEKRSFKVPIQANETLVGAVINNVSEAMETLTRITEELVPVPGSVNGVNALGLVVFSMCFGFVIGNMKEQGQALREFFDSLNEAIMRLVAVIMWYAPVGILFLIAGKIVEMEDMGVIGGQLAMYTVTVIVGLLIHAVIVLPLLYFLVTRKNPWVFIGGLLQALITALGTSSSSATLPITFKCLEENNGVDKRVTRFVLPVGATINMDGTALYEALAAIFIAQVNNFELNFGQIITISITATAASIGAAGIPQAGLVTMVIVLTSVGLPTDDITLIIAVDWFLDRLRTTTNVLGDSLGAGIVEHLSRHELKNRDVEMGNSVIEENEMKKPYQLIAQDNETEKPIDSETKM
The assay can be described thus: Electrophysiology specificity experiment in transfected HEK293 cells, EAAT1. Conditions: apparent Ki, HEK293, internal solution 10 mM glutamate, mean ± SD. Here is the method: (§1) Human embryonic kidney 293 (HEK293, ATCC CRL-11268) cells were cultured in DMEM media supplemented with 10% (v v) fetal bovine serum (FBS), 2 mM glutamine, 1% penicillin streptomycin solution, 1 mM sodium pyruvate and non-essential amino acids. Cells were maintained at 37° C. in a fully humidified atmosphere containing 5% CO2. rASCT2, hASCT2, hASCT1, EAAT1, EAAT2, EAAC1, EAAT5 and YFP complementary DNAs were each used to transiently transfect HEK293 using POLYPLUS Jet-prime transfection reagent. Cells were analyzed using electrophysiological techniques 24-40 hours after transfection.
(§2) Stock solutions of inhibitor was prepared in dimethyl sulfoxide (DMSO) up to 100 mM. Dilutions to working concentrations were made using external buffer. […] For rASCT2, hASCT2 and hASCT1, external buffer contained 140 mM NaCl, 2 mM MgCl2, 2 mM CaCl2), and 10 mM HEPES, pH 7.40 while internal pipette solution comprised of 130 mM NaSCN, 2 mM MgCl2, 10 mM EGTA, 10 mM HEPES and 10 mM alanine, pH 7.40. For specificity experiments with EAAT1, EAAT2, EAAC1 and EAAT5, internal solution contained 10 mM glutamate instead of alanine. Compounds were applied to HEK293 cells expressing DNA of interest suspended from a current recording electrode in whole cell configuration through a rapid solution exchange device. Cells are immersed in external buffer bath used to dissolve the inhibitors. The open pipette resistance was between 3 and 6 MΩ. Series resistance was not compensated in these experiments due to relatively small currents. Currents traces were recorded using an Adams and List EPC7 amplifier and digitized using a Molecular Devices Digidata A/D converter.
(§3) Linear and nonlinear curve fitting of the experimental data were analyzed using MicroCal Origin software. Nonlinear dose-response relationships were fitted with a Michaelis-Menten-like equation to obtain apparent Ki values in the absence of substrate (see TABLE 2 for Ki values). The figures show representative current traces and dose-response curves for hACST2 and rASCT2, used to obtain Ki values in TABLE 2 for compound SN 40. At least four experiments were performed with at least three different cells. Error bars in all graphs, e.g., in FIG. 1B and FIG. 1C and tables (Ki values) represent mean±SD.

For a further assay, the target named is T3, EAAT2 (Homo sapiens, UniProt P43004).
T3 construct: expressed in transfected cells; host or cells: HEK293 (ATCC CRL-11268), transient transfection
T3 sequence (P43004 whole entry, species assumed): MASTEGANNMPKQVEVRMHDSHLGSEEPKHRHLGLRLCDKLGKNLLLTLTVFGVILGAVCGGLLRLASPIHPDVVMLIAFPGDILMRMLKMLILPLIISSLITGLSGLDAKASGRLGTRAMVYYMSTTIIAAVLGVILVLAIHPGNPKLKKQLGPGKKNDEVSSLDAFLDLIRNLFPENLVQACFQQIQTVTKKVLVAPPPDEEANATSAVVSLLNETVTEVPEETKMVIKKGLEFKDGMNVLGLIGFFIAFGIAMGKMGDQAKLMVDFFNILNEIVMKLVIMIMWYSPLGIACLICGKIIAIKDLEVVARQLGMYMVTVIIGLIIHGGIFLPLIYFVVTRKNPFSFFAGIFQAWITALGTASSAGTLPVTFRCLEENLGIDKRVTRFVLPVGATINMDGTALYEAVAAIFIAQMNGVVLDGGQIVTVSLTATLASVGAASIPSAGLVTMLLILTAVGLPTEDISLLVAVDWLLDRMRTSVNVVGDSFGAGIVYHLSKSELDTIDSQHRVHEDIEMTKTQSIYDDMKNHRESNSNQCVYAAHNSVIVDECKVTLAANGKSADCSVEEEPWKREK
The assay can be described thus: Electrophysiology specificity experiment in transfected HEK293 cells, EAAT2. As to conditions: apparent Ki, HEK293, internal solution 10 mM glutamate, mean ± SD; read-out: Ki EAAT2. Here is the method:
as §1, §2, §3

Another assay has as its target T4, EAAC1 (UniProt P51907).
T4 construct: Ki EAAC1; other: apparent Ki, HEK293, internal solution 10 mM glutamate, mean ± SD
T4 sequence (P51907 1-523): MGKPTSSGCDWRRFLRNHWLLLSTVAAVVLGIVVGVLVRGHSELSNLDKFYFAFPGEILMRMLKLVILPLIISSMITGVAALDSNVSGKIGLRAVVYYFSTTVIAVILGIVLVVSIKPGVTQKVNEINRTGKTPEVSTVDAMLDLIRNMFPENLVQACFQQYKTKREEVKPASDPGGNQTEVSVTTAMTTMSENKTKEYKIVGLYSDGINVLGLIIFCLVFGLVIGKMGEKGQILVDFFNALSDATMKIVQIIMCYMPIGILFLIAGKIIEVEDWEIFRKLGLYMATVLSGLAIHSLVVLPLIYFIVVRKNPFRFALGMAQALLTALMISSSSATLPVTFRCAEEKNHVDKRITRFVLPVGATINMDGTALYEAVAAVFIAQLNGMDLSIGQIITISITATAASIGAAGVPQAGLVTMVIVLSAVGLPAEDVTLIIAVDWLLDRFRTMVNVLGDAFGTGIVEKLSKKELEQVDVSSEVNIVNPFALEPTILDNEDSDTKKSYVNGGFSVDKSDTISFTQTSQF
The assay can be described thus: Electrophysiology specificity experiment in transfected HEK293 cells, EAAC1. As to conditions: apparent Ki, HEK293, internal solution 10 mM glutamate, mean ± SD. On the procedure:
Cells were maintained at 37° C. in a fully humidified atmosphere containing 5% CO2. rASCT2, hASCT2, hASCT1, EAAT1, EAAT2, EAAC1, EAAT5 and YFP complementary DNAs were each used to transiently transfect HEK293 using POLYPLUS Jet-prime transfection reagent. Cells were analyzed using electrophysiological techniques 24-40 hours after transfection.
as §2
Linear and nonlinear curve fitting of the experimental data were analyzed using MicroCal Origin software. Nonlinear dose-response relationships were fitted with a Michaelis-Menten-like equation to obtain apparent Ki values in the absence of substrate (see TABLE 2 for Ki values). […] At least four experiments were performed with at least three different cells. Error bars in all graphs, e.g., in FIG. 1B and FIG. 1C and tables (Ki values) represent mean±SD.

For a further assay, the target named is T5, EAAT5 (Homo sapiens, UniProt O00341).
T5 construct: expressed in transfected cells; host or cells: HEK293 (ATCC CRL-11268), transient transfection
T5 sequence (O00341 whole entry, species assumed): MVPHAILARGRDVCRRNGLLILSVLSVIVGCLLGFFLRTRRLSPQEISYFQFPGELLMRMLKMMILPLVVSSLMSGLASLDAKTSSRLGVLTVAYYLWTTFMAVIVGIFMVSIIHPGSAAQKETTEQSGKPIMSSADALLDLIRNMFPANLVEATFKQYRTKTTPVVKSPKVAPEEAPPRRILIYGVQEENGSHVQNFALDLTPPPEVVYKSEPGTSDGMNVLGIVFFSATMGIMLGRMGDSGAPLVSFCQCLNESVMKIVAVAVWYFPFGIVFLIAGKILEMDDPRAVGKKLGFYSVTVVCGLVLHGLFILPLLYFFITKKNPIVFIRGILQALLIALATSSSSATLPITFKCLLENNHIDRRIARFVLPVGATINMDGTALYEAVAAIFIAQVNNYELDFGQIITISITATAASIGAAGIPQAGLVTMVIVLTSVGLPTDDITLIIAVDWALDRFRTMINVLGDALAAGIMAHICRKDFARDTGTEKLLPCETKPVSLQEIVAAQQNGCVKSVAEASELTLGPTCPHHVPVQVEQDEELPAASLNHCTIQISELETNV
As to the kind of experiment: Electrophysiology specificity experiment in transfected HEK293 cells, EAAT5. Conditions: apparent Ki, HEK293, internal solution 10 mM glutamate, mean ± SD. Here is the method: as §1, §2, §3

Turning to `Cc1ccccc1-c1ccc(C(=O)O[C@@H]2CN[C@H](C(=O)O)C2)cc1` [SN 10], the Ki at rASCT2 was found to be 970 ± 100 nM; on EAAT1, 1000 ± 100 nM; at EAAT2, 1300 ± 100 nM; on EAAC1, 1990 ± 400 nM; at EAAT5 it was 2500 ± 900 nM.
For `O=C(O[C@@H]1CN[C@H](C(=O)O)C1)c1ccc(-c2ccc(F)cc2)cc1` [SN 08], in that order: 650 ± 40 nM, 400 ± 100 nM, 1290 ± 300 nM, 690 ± 100 nM and 2400 ± 700 nM.
As to `O=C(O[C@@H]1CN[C@H](C(=O)O)C1)c1ccc(-c2ccccc2)nc1` [SN 19], the Ki on rASCT2 amounted to 890 ± 200 nM; at EAAT1 it was 10200 ± 2500 nM; on EAAT2, 7950 ± 1100 nM; at EAAC1 it was 14200 ± 700 nM.
With `Cc1ccccc1-c1ccc(C(=O)O[C@@H]2CN[C@H](C(=O)O)C2)cc1C` [SN 11], the Ki stood at 870 ± 100 nM on rASCT2; 4750 ± 300 nM on EAAT1; 3140 ± 500 nM on EAAT2; 950 ± 200 nM at EAAC1; 1170 ± 100 nM at EAAT5.
For `N[C@@H](COC(=O)c1ccc(NC(=O)c2ccccc2)cc1)C(=O)O` [SN 25], in that order: 4400 ± 1500 nM, 9570 ± 1600 nM, 11000 ± 1300 nM, 12300 ± 1900 nM and 12300 ± 3200 nM.
For `O=C(O[C@@H]1CN[C@H](C(=O)O)C1)c1ccc(-c2ccccc2)cc1` [SN 05], in that order: 730 ± 100 nM, 3700 ± 200 nM, 7250 ± 1500 nM, 7230 ± 1400 nM and 2220 ± 500 nM.
For `O=C(O)[C@@H]1C[C@H](OCc2ccc(-c3ccccc3)cc2)CN1` [SN 39], in that order: 1130 ± 100 nM, 930 ± 100 nM, 2090 ± 500 nM, 1270 ± 200 nM and 1410 ± 300 nM.
In the case of `O=C(O[C@@H]1CN[C@H](C(=O)O)C1)c1ccc(-c2ccc(C(F)(F)F)cc2)cc1` [SN 09], the Ki turned out to be 270 ± 50 nM on rASCT2; 1000 ± 300 nM at EAAT1; 970 ± 100 nM on EAAT2; 1250 ± 200 nM on EAAC1; 1090 ± 200 nM at EAAT5.
